Results as given in patent US20090304692A1, “TRIAZINE COMPOUNDS AS PI3 KINASE AND MTOR INHIBITORS” (Wyeth, priority 2008, published 2009).
Like-named read-outs stand apart in the source and are kept apart here.

Experiments:
PI3K-γ = PI3K-γ (Homo sapiens, UniProt P48736); test: PI3K-gamma fluorescence polarization assay; details: read-out: IC50 PI3Kγ
Human mTOR (FLAG-TOR) = Human mTOR (FLAG-TOR) (Homo sapiens, UniProt P42345); test: mTOR kinase assay (DELFIA format, purified enzyme); format: biochemical; details: read-out: IC50 mTOR
[1] = tested on: human breast MDA-MB-361 tumor cell line; test: In vitro cell culture growth assay (MTS), MDA-MB-361; format: cell-based; details: Homo sapiens, MDA-MB-361, 72 h; MTS cell growth assay, three days after drug treatment; read-out: IC50 MDA-MB-361
[2] = tested on: human prostate PC3-mm2 tumor cell line; test: In vitro cell culture growth assay (MTS), PC3-mm2; format: cell-based; details: Homo sapiens, PC3MM2, 72 h, MTS cell growth assay, three days after drug treatment; read-out: IC50 PC3-mm2
PI3K-α = PI3K-α (Homo sapiens, UniProt P42336); test: PI3K-alpha fluorescence polarization assay; details: read-out: IC50 PI3Kα
human SMG-1 (hSMG-1) = human SMG-1 (hSMG-1) (Homo sapiens, UniProt Q96Q15); test: hSMG-1 kinase assay (DELFIA); format: biochemical
human SMG-1 (hSMG-1), sequence (Q96Q15 whole entry): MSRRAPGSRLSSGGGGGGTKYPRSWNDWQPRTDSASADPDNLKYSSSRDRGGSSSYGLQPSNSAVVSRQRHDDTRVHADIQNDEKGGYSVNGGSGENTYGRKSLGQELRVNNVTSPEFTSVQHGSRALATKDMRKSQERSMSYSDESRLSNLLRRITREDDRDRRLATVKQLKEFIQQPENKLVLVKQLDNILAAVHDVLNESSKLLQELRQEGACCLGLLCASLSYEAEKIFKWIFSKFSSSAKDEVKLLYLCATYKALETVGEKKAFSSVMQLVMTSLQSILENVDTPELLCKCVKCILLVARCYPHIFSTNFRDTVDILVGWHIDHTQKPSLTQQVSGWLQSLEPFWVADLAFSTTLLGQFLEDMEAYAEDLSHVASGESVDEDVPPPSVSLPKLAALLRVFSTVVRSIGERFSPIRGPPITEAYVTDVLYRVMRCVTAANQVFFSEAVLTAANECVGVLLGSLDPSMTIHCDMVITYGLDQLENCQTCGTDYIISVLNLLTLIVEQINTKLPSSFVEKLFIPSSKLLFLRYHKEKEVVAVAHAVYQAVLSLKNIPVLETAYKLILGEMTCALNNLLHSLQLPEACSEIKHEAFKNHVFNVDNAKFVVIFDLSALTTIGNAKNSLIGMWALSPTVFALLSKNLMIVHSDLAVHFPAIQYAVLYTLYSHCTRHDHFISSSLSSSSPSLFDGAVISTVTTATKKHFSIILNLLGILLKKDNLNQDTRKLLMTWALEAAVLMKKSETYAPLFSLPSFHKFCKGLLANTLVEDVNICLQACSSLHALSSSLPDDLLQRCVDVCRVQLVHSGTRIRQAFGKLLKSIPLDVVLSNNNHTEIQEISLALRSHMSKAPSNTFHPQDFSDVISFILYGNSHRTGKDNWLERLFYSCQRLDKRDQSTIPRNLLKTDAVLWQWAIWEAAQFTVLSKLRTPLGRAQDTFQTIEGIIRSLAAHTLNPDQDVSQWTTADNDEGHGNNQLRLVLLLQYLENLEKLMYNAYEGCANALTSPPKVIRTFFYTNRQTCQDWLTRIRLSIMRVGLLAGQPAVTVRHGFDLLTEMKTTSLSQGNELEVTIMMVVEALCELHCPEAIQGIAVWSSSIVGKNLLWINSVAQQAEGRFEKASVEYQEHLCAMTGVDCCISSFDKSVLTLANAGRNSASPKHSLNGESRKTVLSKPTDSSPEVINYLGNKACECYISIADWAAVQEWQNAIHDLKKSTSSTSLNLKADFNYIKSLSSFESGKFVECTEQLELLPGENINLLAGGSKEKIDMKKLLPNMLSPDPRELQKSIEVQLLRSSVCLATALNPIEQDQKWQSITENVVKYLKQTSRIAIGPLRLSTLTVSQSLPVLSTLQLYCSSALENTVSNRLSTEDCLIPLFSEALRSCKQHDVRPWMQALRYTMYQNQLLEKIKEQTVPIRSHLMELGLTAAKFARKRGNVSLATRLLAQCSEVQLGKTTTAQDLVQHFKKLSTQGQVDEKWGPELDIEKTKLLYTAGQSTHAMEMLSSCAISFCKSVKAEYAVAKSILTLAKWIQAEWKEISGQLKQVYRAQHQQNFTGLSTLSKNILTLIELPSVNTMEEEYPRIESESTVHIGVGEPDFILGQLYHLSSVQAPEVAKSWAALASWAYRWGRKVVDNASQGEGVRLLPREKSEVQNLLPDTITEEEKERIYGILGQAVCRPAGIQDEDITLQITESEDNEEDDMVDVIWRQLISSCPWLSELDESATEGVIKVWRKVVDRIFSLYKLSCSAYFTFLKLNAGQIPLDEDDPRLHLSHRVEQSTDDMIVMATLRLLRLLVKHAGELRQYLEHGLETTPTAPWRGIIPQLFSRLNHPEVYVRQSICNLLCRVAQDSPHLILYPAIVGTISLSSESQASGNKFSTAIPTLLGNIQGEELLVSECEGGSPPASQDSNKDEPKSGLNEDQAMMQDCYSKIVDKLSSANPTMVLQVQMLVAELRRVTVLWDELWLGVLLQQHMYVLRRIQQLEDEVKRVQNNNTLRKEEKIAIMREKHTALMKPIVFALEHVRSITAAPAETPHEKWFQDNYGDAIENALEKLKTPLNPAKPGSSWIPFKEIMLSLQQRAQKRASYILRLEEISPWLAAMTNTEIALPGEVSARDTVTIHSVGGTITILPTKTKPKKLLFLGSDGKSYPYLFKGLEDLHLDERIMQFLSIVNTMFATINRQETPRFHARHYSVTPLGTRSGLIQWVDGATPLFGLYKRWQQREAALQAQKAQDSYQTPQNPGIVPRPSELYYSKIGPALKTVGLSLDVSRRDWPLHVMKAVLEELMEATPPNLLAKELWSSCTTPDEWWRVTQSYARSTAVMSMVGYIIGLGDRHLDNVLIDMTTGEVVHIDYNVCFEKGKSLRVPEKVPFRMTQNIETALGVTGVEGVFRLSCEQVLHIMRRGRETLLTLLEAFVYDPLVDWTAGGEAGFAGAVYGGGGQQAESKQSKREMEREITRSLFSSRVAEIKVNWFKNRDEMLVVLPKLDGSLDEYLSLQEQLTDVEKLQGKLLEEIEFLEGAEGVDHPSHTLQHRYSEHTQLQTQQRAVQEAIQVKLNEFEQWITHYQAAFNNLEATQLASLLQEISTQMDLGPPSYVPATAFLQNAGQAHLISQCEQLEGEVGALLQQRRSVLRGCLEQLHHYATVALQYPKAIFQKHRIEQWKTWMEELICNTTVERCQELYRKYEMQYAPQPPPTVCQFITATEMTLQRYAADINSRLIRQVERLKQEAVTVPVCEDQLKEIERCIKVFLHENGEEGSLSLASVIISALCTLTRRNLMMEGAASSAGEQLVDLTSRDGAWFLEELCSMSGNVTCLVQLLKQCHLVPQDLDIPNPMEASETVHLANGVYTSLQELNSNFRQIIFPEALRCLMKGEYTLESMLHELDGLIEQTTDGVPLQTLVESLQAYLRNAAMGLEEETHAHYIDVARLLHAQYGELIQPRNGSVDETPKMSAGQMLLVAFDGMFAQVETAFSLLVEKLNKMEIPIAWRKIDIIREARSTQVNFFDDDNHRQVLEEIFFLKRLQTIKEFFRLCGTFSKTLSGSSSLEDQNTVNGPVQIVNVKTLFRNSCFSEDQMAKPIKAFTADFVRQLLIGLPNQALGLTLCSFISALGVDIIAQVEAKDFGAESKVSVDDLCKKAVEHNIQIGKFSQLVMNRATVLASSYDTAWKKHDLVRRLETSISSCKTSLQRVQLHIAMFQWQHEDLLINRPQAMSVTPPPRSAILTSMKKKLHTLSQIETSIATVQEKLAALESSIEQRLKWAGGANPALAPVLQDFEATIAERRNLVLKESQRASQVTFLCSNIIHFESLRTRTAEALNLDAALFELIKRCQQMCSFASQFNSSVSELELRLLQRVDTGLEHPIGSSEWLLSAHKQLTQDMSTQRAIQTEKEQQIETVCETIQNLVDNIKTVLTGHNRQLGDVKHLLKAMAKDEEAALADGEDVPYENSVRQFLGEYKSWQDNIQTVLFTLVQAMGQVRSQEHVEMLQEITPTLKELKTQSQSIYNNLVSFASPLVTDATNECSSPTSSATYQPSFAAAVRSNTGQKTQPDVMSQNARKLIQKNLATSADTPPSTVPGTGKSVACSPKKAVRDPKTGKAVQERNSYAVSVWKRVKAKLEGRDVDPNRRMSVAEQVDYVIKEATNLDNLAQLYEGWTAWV

[3] = tested on: human prostate LNCap tumor cell line; test: In vitro cell culture growth assay (MTS), LNCap; details: Homo sapiens, LNCaP, 72 h, read-out: IC50 LNCap
[4] = tested on: human tumor xenograft models; details: cited from earlier work
[5] = tested on: acute lymphoblastic leukemia xenograft; details: NOS/SCID xenograft mouse model of acute lymphoblastic leukemia; cited from earlier work
mTOR enzymes = mTOR enzymes (Homo sapiens, UniProt P42345); details: read-out: mTOR enzymes IC50; cited from earlier work

PI3K-γ, sequence (P48736 whole entry, species assumed): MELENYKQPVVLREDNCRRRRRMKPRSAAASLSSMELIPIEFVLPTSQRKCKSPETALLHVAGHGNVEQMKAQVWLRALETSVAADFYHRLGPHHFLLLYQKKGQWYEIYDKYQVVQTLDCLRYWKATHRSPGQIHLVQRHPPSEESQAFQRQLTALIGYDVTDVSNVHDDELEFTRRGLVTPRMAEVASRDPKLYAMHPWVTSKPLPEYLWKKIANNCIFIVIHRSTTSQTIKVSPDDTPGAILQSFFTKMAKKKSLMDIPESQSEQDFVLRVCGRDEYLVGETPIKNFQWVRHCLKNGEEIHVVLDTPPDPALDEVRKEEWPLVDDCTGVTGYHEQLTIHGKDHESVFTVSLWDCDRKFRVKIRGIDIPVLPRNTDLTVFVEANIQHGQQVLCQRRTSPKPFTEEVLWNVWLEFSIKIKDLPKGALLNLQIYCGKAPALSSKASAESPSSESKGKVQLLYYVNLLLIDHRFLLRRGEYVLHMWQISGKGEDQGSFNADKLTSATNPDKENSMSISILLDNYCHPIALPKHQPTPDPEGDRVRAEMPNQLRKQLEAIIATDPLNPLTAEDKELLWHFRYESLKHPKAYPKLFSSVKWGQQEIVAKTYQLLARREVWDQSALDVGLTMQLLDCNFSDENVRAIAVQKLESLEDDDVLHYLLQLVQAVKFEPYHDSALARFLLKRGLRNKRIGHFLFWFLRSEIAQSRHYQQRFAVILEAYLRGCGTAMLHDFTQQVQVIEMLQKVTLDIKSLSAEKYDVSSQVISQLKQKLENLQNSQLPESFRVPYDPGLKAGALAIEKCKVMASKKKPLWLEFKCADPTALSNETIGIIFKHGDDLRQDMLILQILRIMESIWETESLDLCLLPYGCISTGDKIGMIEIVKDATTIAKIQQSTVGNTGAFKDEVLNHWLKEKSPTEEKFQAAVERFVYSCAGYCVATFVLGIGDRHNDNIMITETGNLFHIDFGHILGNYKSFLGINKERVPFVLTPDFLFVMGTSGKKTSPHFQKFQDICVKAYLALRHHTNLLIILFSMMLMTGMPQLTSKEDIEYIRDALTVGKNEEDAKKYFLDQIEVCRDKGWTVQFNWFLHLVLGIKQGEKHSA

Compound | IC50 (PI3K-γ) | IC50 (Human mTOR (FLAG-TOR)) | melting point | IC50 (PI3K-α) | IC50 (human SMG-1 (hSMG-1)) | further results
O=C(Nc1ccncc1)Nc1ccc(-c2nc(N3CCOCC3)nc(N3CC4CCC(C3)O4)n2)cc1 [Example 48, 1-{4-[4-morpholin-4-yl-6-(8-oxa-3-azabicyclo[3.2.1]oct-3-yl)-1,3,5-triazin-2-yl]phenyl}-3-pyridin-4-ylurea] | 40 nM | 1.8 nM | 258 °C | 6 nM |  | IC50 [1]: 38 nM; IC50 [2]: 48 nM
O=C(Nc1ccncc1)Nc1ccc(-c2nc(OC3CCOCC3)nc(N3CCOCC3)n2)cc1 [Example 59, 1-{4-[4-morpholin-4-yl-6-(tetrahydro-2H-pyran-4-yloxy)-1,3,5-triazin-2-yl]phenyl}-3-pyridin-4-ylurea] | 30 nM | 1.05 nM | 238 °C | 3 nM |  | IC50 [1]: 14 nM; IC50 [2]: 16 nM
O=C(Nc1ccncc1)Nc1ccc(-c2nc(N3CCC3)nc(N3CCOCC3)n2)cc1 [Example 140, 1-[4-(4-azetidin-1-yl-6-morpholin-4-yl-1,3,5-triazin-2-yl)phenyl]-3-pyridin-4-ylurea] | 100 nM | 27 nM | 212 °C | 27 nM |  | IC50 [1]: 225 nM; IC50 [2]: 279 nM
COC(=O)c1ccc(NC(=O)Nc2ccc(-c3nc(N4CCC4)nc(N4CCOCC4)n3)cc2)cc1 [Example 141, methyl 4-({[4-(4-azetidin-1-yl-6-morpholin-4-yl-1,3,5-triazin-2-yl)phenyl]carbamoyl}amino)benzoate] | 3380 nM | 26 nM | 212 °C | 241 nM |  | 
O=C(Nc1ccc(C(=O)O)cc1)Nc1ccc(-c2nc(N3CCC3)nc(N3CCOCC3)n2)cc1 [Example 195, 4-({[4-(4-azetidin-1-yl-6-morpholin-4-yl-1,3,5-triazin-2-yl)phenyl]carbamoyl}amino) benzoic acid] | 498 nM | 21 nM | 204 °C | 115 nM |  | 
CN1CCN(C(=O)c2ccc(NC(=O)Nc3ccc(-c4nc(N5CCC5)nc(N5CCOCC5)n4)cc3)cc2)CC1 [Example 196, 1-[4-(4-azetidin-1-yl-6-morpholin-4-yl-1,3,5-triazin-2-yl)phenyl]-3-{4-[(4-methylpiperazin-1-yl)carbonyl]phenyl}urea] | 55 nM | 13 nM | 170 °C | 6 nM |  | IC50 [1]: 50 nM; IC50 [2]: 82 nM
CC(C)(C)OC(=O)N1C[C@H]2C[C@@H]1CN2c1nc(-c2ccc(NC(=O)Nc3ccncc3)cc2)nc(N2CCOCC2)n1 [Example 256, tert-butyl(1R,4R)-5-(4-morpholin-4-yl-6-{4-[(pyridin-4-ylcarbamoyl)amino]phenyl}-1,3,5-triazin-2-yl)-2,5-diazabicyclo[2.2.1]heptane-2-carboxylate] | 182 nM | 32 nM | 192 °C | 68 nM |  | 
CC(=O)c1ccc(NC(=O)Nc2ccc(-c3nc(N4CCOCC4)nc(N4C[C@H]5C[C@@H]4CN5C(=O)OC(C)(C)C)n3)cc2)cc1 [Example 257, tert-butyl (1R,4R)-5-[4-(4-{[(4-acetylphenyl)carbamoyl]amino}phenyl)-6-morpholin-4-yl-1,3,5-triazin-2-yl]-2,5-diazabicyclo[2.2.1]heptane-2-carboxylate] | 323 nM | 85 nM | 202 °C | 90 nM |  | 
O=C(Nc1ccc(C(=O)NCc2ccccn2)cc1)Nc1ccc(-c2nc(N3CCOCC3)nc(N3CCOCC3)n2)cc1 [Example 263, 4-({[4-(4,6-dimorpholin-4-yl-1,3,5-triazin-2-yl)phenyl]carbamoyl}amino)-N-(pyridin-2-ylmethyl)benzamide] | 20 nM | 1 nM | 296 to 298 °C | 3 nM |  | IC50 [1]: 68 nM; IC50 [2]: 31 nM
COC(=O)c1ccc(NC(=O)Nc2ccc(-c3nc(C(C)C)nc(N4CCOCC4)n3)cc2)cc1 [Example 300, methyl 4-[({4-[4-(1-methylethyl)-6-morpholin-4-yl-1,3,5-triazin-2-yl]phenyl}carbamoyl)amino]benzoate] | 106 nM | 5.3 nM | 218 °C | 39 nM |  | IC50 [1]: 297 nM; IC50 [2]: 340 nM
CNC(=O)Nc1ccc(-c2nc(-c3ccc(NC(=O)Nc4cccc(C(N)=O)c4)cc3)nc(N3C(C)COCC3C)n2)cc1 (centres unmarked) [Example 469, 3-[({4-[4-(3,5-dimethylmorpholin-4-yl)-6-{4-[(methylcarbamoyl)amino]phenyl}-1,3,5-triazin-2-yl]phenyl}carbamoyl)amino]benzamide] |  | 23 nM |  |  | 130 nM | IC50 [3]: 2800 nM
CNC(=O)Nc1ccc(-c2nc(-c3ccc(NC(=O)Nc4ccc(C(N)=O)cc4)cc3)nc(N3C(C)COCC3C)n2)cc1 (centres unmarked) [Example 470, 4-[({4-[4-(3,5-dimethylmorpholin-4-yl)-6-{4-[(methylcarbamoyl)amino]phenyl}-1,3,5-triazin-2-yl]phenyl}carbamoyl)amino]benzamide] |  | 7 nM |  |  | 195 nM | IC50 [3]: 1000 nM
CNC(=O)Nc1ccc(-c2nc(-c3ccc(NC(=O)Nc4ccncc4)cc3)nc(N3CC4CCC(C3)O4)n2)cc1 [Example 471, 1-methyl-3-{4-[4-(8-oxa-3-azabicyclo[3.2.1]oct-3-yl)-6-{4-[(pyridin-4-ylcarbamoyl)amino]phenyl}-1,3,5-triazin-2-yl]phenyl}urea] |  |  |  |  | 5 nM | IC50 [3]: 130 nM
CNC(=O)Nc1ccc(-c2nc(-c3ccc(NC(=O)Nc4ccncc4)cc3)nc(N3C(C)COCC3C)n2)cc1 (centres unmarked) [Example 472, 1-{4-[4-(3,5-dimethylmorpholin-4-yl)-6-{4-[(methylcarbamoyl)amino]phenyl}-1,3,5-triazin-2-yl]phenyl}-3-pyridin-4-ylurea] |  | 35 nM |  |  | 200 nM | IC50 [3]: 3800 nM
c1cc(-c2nc(N3CCOCC3)nc(N3CCOCC3)n2)ccc1-c1nn[nH]n1 [Example 475, 2,4-dimorpholin-4-yl-6-[4-(2H-tetrazol-5-yl)phenyl]-1,3,5-triazine] |  | 18500 nM |  |  | > 20000 nM | 
CNC(=O)Nc1ccc(-c2nc(N3CCOCC3)nc(N3CCOCC3)n2)cc1 [Example 476, 1-[4-(4,6-dimorpholin-4-yl-1,3,5-triazin-2-yl)phenyl]-3-methylurea] |  | 5 nM |  |  | 19 nM | 
O=C(Cc1ccc(-c2nc(N3CCOCC3)nc(N3CCOCC3)n2)cc1)Nc1cccnc1 [Example 477, 2-[4-(4,6-dimorpholin-4-yl-1,3,5-triazin-2-yl)phenyl]-N-pyridin-3-ylacetamide] |  | 14000 nM |  |  | 9250 nM | 
Cn1c(=O)n(-c2ccc(C(C)(C)C#N)cc2)c2c3cc(-c4cnc5ccccc5c4)ccc3ncc21 [NVP-BEZ-235, 2-methyl-2-(4-(3-methyl-2-oxo-8-(quinolin-3-yl)-2,3-dihydro-1H-imidazo[4,5-c]quinolin-1-yl)phenyl)propanenitrile] |  |  |  |  |  | activity against human tumor models ([4]; prostrate (PC-3) and glioblastoma (U-87) xenografts): demonstrated activity
Oc1cccc(-c2nc(N3CCOCC3)c3oc4ncccc4c3n2)c1 [PI103, 3-(4-(4-morpholinyl)pyrido[3′,2′:4,5]furo[3,2-d]pyrimidin-2-yl)phenol] |  |  |  |  |  | activity against human tumor models ([4]; I.P. dosing in mice, U87MG, PC3, MDA-MB-468, MDA-MB-435, HCT 116, SKOV3, IGROV-1 xenografts): demonstrated activity
CO[C@H]1C[C@@H]2CC[C@@H](C)[C@@](O)(O2)C(=O)C(=O)N2CCCC[C@H]2C(=O)O[C@H]([C@H](C)C[C@@H]2CC[C@@H](OC(=O)C(C)(CO)CO)[C@H](OC)C2)CC(=O)[C@H](C)/C=C(\C)[C@@H](O)[C@@H](OC)C(=O)[C@H](C)C[C@H](C)/C=C/C=C/C=C/1C [Torisel] |  |  |  |  |  | activity in xenograft mouse model [5]: active
FC(F)c1nc2ccccc2n1-c1nc(N2CCOCC2)nc(N2CCOCC2)n1 [ZSTK474, 2-(2-difluoromethylbenzoimidazol-1-yl)-4,6-dimorpholino-1,3,5-triazine] |  |  |  |  |  | growth of human xenograft tumors ([4]; chronic oral administration, 400 mg/kg, mouse, A549, PC-3, WiDr): completely inhibited growth; IC50 (mTOR enzymes): > 10000 nM
